Measurements taken from US20130274294A1, “4-(Hetero)Aryl-Ethynyl-Octahydro-Indole-1-Esters” (priority 2010, published 2013).
≈ marks a conversion by molar mass, not a printed value.

Assays:
[1] = Solubility in Cl-free phosphate buffer (0.067 M), pH 6.8; format: physicochemical; details: pH 6.8, aqueous buffer
Method: Solubility of compounds of the invention was determined in the following buffer: Cl-free phosphate buffer (0.067 M) is made from KH2PO4 solution and titrated to pH 6.8 with NaOH. The table below represents solubility values of compounds of the invention in the above buffer.

human mGluR5a receptors = target: T1, human mGluR5a receptors (Homo sapiens, UniProt P41594); assay: Inhibition of glutamate-induced elevation of intracellular calcium concentration in L(tk-) cells expressing human mGluR5a receptors; format: cell-based; details: agonist glutamate
T1 construct: expressed in transfected cells; host or cells: L(tk-) cells (mouse fibroblast line)
Description: This can be determined in vitro, for example, at recombinant human mGluR5, using different procedures like, for example, measurement of the inhibition of the agonist induced elevation of intracellular Ca^2+ concentration in accordance with L. P. Daggett et al., Neuropharm. Vol. 34, pages 871-886 (1995), P. J. Flor et al., J. Neurochem. Vol. 67, pages 58-63 (1996) or by determination to what extent the agonist induced elevation of the inositol phosphate turnover is inhibited as described by T. Knoepfel et al., Eur. J. Pharmacol. Vol. 288, pages 389-392 (1994), L. P. Daggett et al., Neuropharm. Vol. 67, pages 58-63 (1996) and references cited therein. Isolation and expression of human mGluR subtypes are described in U.S. Pat. No. 5,521,297.
Activity of compounds of the present invention was examined by determination to what extent the glutamate-induced elevation of the intracellular calcium concentration in L(tk-) cells expressing human mGluR5a receptors (see L. P. Daggett et al., Neuropharm. Vol. 34, pages 871-886, 1995) is inhibited by utilizing methods as described e.g. by L. P. Daggett et al., Neuropharm. Vol. 34, pages 871-886 (1995) and P. J. Flor et al., J. Neurochem. Vol. 67, pages 58-63 (1996).
The table below represents IC50 values of the inhibition of the glutamate-induced elevation of the intracellular calcium concentration.

T1 sequence (P41594 21-1180 isoform P41594-2 limits assumed): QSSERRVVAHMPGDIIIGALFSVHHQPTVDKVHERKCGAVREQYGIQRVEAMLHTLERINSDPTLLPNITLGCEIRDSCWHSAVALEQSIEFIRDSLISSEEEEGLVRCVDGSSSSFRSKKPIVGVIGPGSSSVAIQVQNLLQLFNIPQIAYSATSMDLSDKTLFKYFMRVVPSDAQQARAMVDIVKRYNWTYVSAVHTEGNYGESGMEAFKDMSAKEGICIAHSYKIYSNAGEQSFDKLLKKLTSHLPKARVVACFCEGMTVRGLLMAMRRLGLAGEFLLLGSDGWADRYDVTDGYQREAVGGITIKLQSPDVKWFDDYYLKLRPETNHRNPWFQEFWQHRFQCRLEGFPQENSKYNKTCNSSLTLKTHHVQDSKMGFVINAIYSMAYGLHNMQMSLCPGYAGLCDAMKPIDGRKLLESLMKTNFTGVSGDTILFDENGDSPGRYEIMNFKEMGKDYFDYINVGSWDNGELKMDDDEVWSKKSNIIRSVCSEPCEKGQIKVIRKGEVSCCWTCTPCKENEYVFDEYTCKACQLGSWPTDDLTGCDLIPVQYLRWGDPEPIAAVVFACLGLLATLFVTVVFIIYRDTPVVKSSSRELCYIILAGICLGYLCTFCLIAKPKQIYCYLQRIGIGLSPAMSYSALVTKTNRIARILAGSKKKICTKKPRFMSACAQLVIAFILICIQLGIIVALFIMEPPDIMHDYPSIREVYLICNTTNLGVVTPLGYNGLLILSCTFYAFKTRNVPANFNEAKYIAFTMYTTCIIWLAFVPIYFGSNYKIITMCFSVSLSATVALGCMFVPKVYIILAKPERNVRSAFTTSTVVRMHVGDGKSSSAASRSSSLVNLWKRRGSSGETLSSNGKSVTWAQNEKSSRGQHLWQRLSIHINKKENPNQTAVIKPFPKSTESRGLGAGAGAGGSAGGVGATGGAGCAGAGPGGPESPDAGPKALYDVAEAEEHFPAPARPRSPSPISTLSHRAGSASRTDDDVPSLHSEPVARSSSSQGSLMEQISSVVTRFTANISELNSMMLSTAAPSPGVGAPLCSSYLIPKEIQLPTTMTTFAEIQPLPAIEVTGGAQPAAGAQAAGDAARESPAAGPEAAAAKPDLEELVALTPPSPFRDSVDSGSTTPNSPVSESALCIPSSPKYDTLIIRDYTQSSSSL

Row | SMILES | solubility [1] [µg/mL] | IC50 (human mGluR5a receptors) [nM]
1 | COC(=O)N1CC[C@@H]2[C@H]1CCC[C@@]2(N)C#Cc1cccc(C)c1 [Example 8, (3aR,4S,7aR)-methyl 4-amino-4-(m-tolylethynyl)octahydro-1H-indole-1-carboxylate] | > 300 | 330
2 | CCOC(=O)N1CC[C@@H]2[C@H]1CCC[C@@]2(N)C#Cc1cccc(C)c1 [Example 9, (3aR,4S,7aR)-ethyl 4-amino-4-(m-tolylethynyl)octahydro-1H-indole-1-carboxylate] | > 300 | 710
3 | COC(=O)N1CC[C@@H]2[C@H]1CCC[C@@]2(O)C#Cc1cccc(C)n1 [Example 4, (3aR,4S,7aR)-methyl 4-hydroxy-4-((6-methylpyridin-2-yl)ethynyl)octahydro-1H-indole-1-carboxylate] | – | 1430
4 | COC(=O)N1CC[C@@H]2[C@H]1CCC[C@@]2(O)C#Cc1csc(C)n1 [Example 7, (3aR,4S,7aR)-methyl 4-hydroxy-4-((2-methylthiazol-4-yl)ethynyl)octahydro-1H-indole-1-carboxylate] | > 300 | 470
5 | COC(=O)N1CC[C@@H]2[C@H]1CCC[C@@]2(O)C#Cc1cccc(Cl)c1 [Example 1, (3aR,4S,7aR)-methyl 4-((3-chlorophenyl)ethynyl)-4-hydroxyoctahydro-1H-indole-1-carboxylate] | 103 (≈ 309 µM) | 16

Continued, values first:

Row | solubility [1] [µg/mL] | IC50 (human mGluR5a receptors) [nM] | SMILES
6 | > 300 | 530 | COC(=O)N1CC[C@@H]2[C@H]1CCC[C@@]2(O)C#Cc1ccnc(C)c1 [Example 3, (3aR,4S,7aR)-methyl 4-hydroxy-4-((2-methylpyridin-4-yl)ethynyl)octahydro-1H-indole-1-carboxylate]
7 | 153 (≈ 487 µM) | 740 | COC(=O)N1CC[C@@H]2[C@H]1CCC[C@@]2(O)C#Cc1cc(C)ccn1 [Example 6, (3aR,4S,7aR)-methyl 4-hydroxy-4-((4-methylpyridin-2-yl)ethynyl)octahydro-1H-indole-1-carboxylate]
8 | > 300 | 1100 | COC(=O)N1CC[C@@H]2[C@H]1CCC[C@@]2(O)C#Cc1cncc(C)c1 [Example 2, (3aR,4S,7aR)-methyl 4-hydroxy-4-((5-methylpyridin-3-yl)ethynyl)octahydro-1H-indole-1-carboxylate]
9 | 175 (≈ 523 µM) | 146 | COC(=O)N1CC[C@@H]2[C@H]1CCC[C@@]2(O)C#Cc1ccnc(Cl)c1 [Example 5, (3aR,4S,7aR)-methyl 4-((2-chloropyridin-4-yl)ethynyl)-4-hydroxyoctahydro-1H-indole-1-carboxylate]
